In patent publication US20230079819A1, “COMPOUNDS AND USES THEREOF” (Foghorn Therapeutics Inc., priority 2019, published 2023) one finds IC50 data, which are given here for 44 compounds.

In one test the target is T1, BRM (Homo sapiens, UniProt P51531).
T1 construct: made in house; host or cells: High Five insect cells
As to the kind of experiment: ATPase catalytic activity of BRM, ADP-Glo in vitro biochemical assay. The settings on record: ATPase catalytic activity, 30 nM BRM, 400 μM ATP, read-out: BRM IP50 (μM)*.

The target of the next test is T2, BRG-1 (Homo sapiens, UniProt P51532).
T2 construct: made in house; host or cells: High Five insect cells
T2 sequence (P51532 whole entry): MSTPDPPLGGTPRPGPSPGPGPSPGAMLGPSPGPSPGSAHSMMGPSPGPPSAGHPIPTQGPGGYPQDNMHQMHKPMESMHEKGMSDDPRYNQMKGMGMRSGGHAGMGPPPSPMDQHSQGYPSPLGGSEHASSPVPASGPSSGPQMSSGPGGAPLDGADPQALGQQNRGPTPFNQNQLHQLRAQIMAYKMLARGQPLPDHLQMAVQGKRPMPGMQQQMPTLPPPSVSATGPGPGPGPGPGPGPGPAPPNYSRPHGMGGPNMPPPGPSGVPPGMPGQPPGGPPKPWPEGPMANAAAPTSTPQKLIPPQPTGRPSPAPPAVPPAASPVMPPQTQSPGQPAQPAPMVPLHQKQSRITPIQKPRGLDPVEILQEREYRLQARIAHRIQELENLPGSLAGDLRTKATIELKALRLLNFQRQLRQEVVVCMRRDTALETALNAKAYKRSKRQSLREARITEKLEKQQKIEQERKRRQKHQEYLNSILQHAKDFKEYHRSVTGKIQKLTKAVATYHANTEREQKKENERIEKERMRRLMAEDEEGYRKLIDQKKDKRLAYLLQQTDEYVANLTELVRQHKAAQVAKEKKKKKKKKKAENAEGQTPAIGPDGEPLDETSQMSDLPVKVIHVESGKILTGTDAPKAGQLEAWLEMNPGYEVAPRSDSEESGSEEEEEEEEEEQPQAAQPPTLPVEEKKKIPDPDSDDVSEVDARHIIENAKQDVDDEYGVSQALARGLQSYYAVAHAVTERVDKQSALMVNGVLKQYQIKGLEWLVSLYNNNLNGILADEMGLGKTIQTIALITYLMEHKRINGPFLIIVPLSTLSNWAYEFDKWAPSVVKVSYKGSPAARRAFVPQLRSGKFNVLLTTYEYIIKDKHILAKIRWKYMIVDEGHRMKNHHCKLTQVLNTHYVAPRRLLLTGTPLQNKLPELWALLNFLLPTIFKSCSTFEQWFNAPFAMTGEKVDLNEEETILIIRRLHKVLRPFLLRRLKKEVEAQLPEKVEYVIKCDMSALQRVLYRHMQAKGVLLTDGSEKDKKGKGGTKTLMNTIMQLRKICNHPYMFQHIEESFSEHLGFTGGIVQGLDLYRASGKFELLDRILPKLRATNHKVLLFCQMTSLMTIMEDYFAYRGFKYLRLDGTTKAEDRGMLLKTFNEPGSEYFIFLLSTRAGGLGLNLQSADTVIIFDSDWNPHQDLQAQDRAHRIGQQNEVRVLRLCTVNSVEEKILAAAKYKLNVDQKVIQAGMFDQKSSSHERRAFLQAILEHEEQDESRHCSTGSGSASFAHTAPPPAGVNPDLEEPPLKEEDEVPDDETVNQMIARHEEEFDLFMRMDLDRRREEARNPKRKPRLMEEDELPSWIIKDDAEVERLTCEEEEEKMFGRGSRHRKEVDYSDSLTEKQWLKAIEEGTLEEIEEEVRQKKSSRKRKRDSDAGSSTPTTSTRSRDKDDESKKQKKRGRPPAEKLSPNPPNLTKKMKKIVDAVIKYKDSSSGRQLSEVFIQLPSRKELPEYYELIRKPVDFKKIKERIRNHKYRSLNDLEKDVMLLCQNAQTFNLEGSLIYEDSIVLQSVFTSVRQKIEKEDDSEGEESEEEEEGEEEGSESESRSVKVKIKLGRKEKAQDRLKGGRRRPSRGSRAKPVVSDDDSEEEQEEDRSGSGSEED
Put plainly: ATPase catalytic activity of BRG-1, ADP-Glo in vitro biochemical assay. The settings on record: ATPase catalytic activity, 30 nM BRG-1, 400 μM ATP, read-out: BRG1 IP50 (μM)*. On the technique in general: ADP-Glo turns the ADP formed in a reaction into a luminescent signal.

T1 sequence (P51531 whole entry): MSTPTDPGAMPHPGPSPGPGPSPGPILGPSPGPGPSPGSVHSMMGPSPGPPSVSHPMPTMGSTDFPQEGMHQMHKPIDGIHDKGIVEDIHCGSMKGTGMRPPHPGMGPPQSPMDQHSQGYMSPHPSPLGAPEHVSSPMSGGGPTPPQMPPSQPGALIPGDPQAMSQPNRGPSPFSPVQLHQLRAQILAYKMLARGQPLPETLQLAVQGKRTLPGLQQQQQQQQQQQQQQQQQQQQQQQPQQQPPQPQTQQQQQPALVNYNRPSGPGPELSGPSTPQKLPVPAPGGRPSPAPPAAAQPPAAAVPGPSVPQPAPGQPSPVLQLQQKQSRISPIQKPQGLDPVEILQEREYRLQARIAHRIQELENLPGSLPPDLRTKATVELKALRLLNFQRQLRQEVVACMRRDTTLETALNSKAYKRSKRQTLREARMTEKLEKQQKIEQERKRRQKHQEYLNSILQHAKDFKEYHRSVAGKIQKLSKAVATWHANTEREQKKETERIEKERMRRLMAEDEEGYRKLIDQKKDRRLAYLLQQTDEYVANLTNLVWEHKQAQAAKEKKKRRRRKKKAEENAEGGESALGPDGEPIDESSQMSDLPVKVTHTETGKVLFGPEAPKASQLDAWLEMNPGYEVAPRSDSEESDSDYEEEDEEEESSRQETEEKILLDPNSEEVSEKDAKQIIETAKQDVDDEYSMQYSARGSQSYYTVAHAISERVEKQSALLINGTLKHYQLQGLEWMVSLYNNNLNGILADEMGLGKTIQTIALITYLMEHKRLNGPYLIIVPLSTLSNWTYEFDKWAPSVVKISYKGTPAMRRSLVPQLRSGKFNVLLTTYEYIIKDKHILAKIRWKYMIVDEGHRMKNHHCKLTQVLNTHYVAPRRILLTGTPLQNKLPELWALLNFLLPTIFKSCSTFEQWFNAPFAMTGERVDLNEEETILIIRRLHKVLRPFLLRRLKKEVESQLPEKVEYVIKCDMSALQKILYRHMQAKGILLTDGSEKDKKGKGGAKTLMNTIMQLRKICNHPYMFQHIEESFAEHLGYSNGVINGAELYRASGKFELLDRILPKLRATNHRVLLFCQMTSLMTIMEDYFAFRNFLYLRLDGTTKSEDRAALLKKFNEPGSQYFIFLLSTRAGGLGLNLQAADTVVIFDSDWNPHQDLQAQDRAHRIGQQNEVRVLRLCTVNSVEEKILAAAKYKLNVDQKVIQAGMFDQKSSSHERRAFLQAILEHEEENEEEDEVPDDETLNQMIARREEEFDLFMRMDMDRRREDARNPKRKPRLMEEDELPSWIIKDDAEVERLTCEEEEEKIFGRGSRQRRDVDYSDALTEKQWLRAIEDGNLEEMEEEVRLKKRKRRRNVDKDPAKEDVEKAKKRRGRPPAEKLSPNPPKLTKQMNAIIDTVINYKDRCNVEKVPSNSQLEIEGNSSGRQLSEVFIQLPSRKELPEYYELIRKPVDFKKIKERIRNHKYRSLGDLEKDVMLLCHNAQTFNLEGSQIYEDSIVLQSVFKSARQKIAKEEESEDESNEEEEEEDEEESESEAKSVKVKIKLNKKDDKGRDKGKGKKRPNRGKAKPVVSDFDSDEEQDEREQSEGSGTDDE

Consider `CO[C@@H]1CCCN(c2cccc(-c3csc(NC(=O)CNC(=O)c4ccn(C(C)(C)C)c4)n3)n2)C1` [Compound 312], for which the IC50 on BRM and on BRG-1 was over 0.01 µM in each case.

For the compound `CO[C@H]1CCCN(c2cccc(-c3csc(NC(=O)CNC(=O)c4ccn(C5(C)COC5)c4)n3)n2)C1` [Compound 313], the IC50 on BRM and at BRG-1 was over 0.1 µM throughout.

For `CC(C)(C)n1ccc(C(=O)NCC(=O)Nc2nc(-c3cccc(N4CCC(O)CC4)n3)cs2)c1` [Compound 314], the IC50 at BRM and at BRG-1 was over 0.01 µM each time.

As for `C[C@@H]1CN(c2cccc(-c3csc(NC(=O)CNC(=O)c4ccn(C5(C)COC5)c4)n3)n2)C[C@H](C)O1` [Compound 316], the IC50 is under 0.01 µM on BRM and over 0.01 µM at BRG-1.

Take `CC(C)(C)n1ccc(C(=O)NCC(=O)Nc2nc(-c3cccc(N4CC(N5CCOCC5)C4)n3)cs2)c1` [Compound 317]: the IC50 on BRM and on BRG-1 was over 0.1 µM in each case.

As for `COC[C@@H]1CCCN(c2cccc(-c3csc(NC(=O)CNC(=O)c4ccn(C(C)(C)C)c4)n3)n2)C1` [Compound 318], the IC50 on BRM and on BRG-1 was over 0.01 µM in each case.

`COC[C@H]1CCCN(c2cccc(-c3csc(NC(=O)CNC(=O)c4ccn(C(C)(C)C)c4)n3)n2)C1` [Compound 319]: the IC50 at BRM and at BRG-1 was over 0.01 µM in each case.

As for `CC1(n2ccc(C(=O)NCC(=O)Nc3nc(-c4ccnc(N5CCC(O)CC5)n4)cs3)c2)COC1` [Compound 321], the IC50 on BRM is over 0.01 µM; on BRG-1, over 0.1 µM.

Take `CC(C)(C)n1ccc(C(=O)NCC(=O)Nc2nc(-c3ccnc(N4CCC(O)CC4)n3)cs2)c1` [Compound 322]: the IC50 on BRM and on BRG-1 was over 0.01 µM throughout.

Take `C[C@@H]1CN(c2nccc(-c3csc(NC(=O)CNC(=O)c4ccn(C5(C)COC5)c4)n3)n2)C[C@H](C)O1` [Compound 324]: the IC50 on BRM and at BRG-1 was over 0.01 µM each time.

`C[C@@H]1CN(c2nccc(-c3csc(NC(=O)CNC(=O)c4ccn(S(C)(=O)=O)c4)n3)n2)C[C@H](C)O1` [Compound 325]: the IC50 at BRM and at BRG-1 was under 0.01 µM in each case.

As for `C[C@@H]1CN(c2nccc(-c3csc(NC(=O)CNC(=O)c4ccn(C(C)(C)C)c4)n3)n2)C[C@H](C)O1` [Compound 326], the IC50 is under 0.01 µM on BRM and over 0.01 µM at BRG-1.

As to `Cn1ccc(-c2cccc(-c3csc(NC(=O)CNC(=O)c4ccn(C5(C)COC5)c4)n3)n2)n1` [Compound 327, 1-(3-methyloxetan-3-yl)-N-[2-[[4-[6-(1-methylpyrazol-3-yl)-2-pyridyl]thiazol-2-yl]amino]-2-oxo-ethyl]pyrrole-3-carboxamide], the IC50 on BRM and on BRG-1 was over 0.01 µM in each case.

As to `CO[C@@H]1CCCN(c2cccc(-c3csc(NC(=O)CNC(=O)c4ccn(C5(C)COC5)c4)n3)n2)C1` [Compound 330], the IC50 at BRM and on BRG-1 was over 0.1 µM in each case.

As to `C[C@@H]1CN(c2cccc(-c3csc(NC(=O)CNC(=O)c4ccn(C(C)(C)C#N)c4)n3)n2)C[C@H](C)O1` [Compound 331], the IC50 at BRM and at BRG-1 was under 0.01 µM each time.

As for `C[C@@H]1CN(c2cccc(-c3csc(NC(=O)CNC(=O)c4ccn(C5(C(F)(F)F)CC5)c4)n3)n2)C[C@H](C)O1` [Compound 332], the IC50 at BRM is over 0.01 µM; at BRG-1, over 0.1 µM.

For `C[C@@H]1CN(c2cccc(-c3csc(NC(=O)CNC(=O)c4ccn(C5(C)CC5)c4)n3)n2)C[C@H](C)O1` [Compound 333], the IC50 on BRM and at BRG-1 was under 0.01 µM in each case.

Turning to `C[C@@H]1CCCN(c2cccc(-c3csc(NC(=O)CNC(=O)c4ccn(S(C)(=O)=O)c4)n3)n2)C1` [Compound 336], the IC50 on BRM and at BRG-1 was over 0.01 µM each time.

On to `CC1(n2ccc(C(=O)NCC(=O)Nc3nc(-c4cccc(N5CCC(O)CC5)n4)cs3)c2)COC1` [Compound 337], for which the IC50 on BRM and on BRG-1 was over 0.01 µM in each case.

With `CS(=O)(=O)n1ccc(C(=O)NCC(=O)Nc2nc(-c3cccc(N4CCC(F)CC4)n3)cs2)c1` [Compound 339], the IC50 at BRM and at BRG-1 was over 0.01 µM each time.

Consider `C[C@H]1CCCN(c2cccc(-c3csc(NC(=O)CNC(=O)c4ccn(S(C)(=O)=O)c4)n3)n2)C1` [Compound 340], for which the IC50 on BRM and on BRG-1 was over 0.01 µM each time.

Consider `CC1(n2ccc(C(=O)NCC(=O)Nc3nc(-c4cccc(N5CCOCC5)n4)cs3)c2)COC1` [Compound 341], for which the IC50 at BRM is over 0.01 µM; on BRG-1, over 0.1 µM.

For `C[C@@H]1CN(c2cccc(-c3csc(NC(=O)CNC(=O)c4ccn(C5COC5)c4)n3)n2)C[C@H](C)O1` [Compound 343], the IC50 at BRM was over 0.01 µM; at BRG-1, over 0.1 µM.

In the case of `C[C@@H]1CN(c2cccc(-c3csc(NC(=O)CNC(=O)c4ccn(C(C)(C)C)n4)n3)n2)C[C@H](C)O1` [Compound 344], the IC50 at BRM and on BRG-1 was over 0.01 µM throughout.

As to `COC[C@H](NC(=O)c1ccn(C(C)(C)C)n1)C(=O)Nc1nc(-c2ccc3ccn(C)c(=O)c3c2)cs1` [Compound 345], the IC50 at BRM and on BRG-1 was over 0.1 µM each time.

In the case of `CCn1ccc2ccc(-c3csc(NC(=O)[C@H](COC)NC(=O)c4ccn(C(C)(C)C)c4)n3)cc2c1=O` [Compound 347], the IC50 at BRM and on BRG-1 was over 0.01 µM throughout.

Take `C[C@H](NC(=O)c1ccn(C2(C)COC2)c1)C(=O)Nc1nc(-c2ccc3ccn(C)c(=O)c3c2)cs1` [Compound 348]: the IC50 on BRM and on BRG-1 was over 0.01 µM each time.

On to `CS(=O)(=O)n1ccc(C(=O)NCC(=O)Nc2nc(-c3cccc(C#CC4COC4)c3)cs2)c1` [Compound 349], for which the IC50 at BRM and on BRG-1 was over 0.01 µM in each case.

Turning to `COC[C@H](NC(=O)c1ccn(S(C)(=O)=O)c1)C(=O)Nc1nc(-c2ccc3c(c2)C(=O)N(C)CC3)cs1` [Compound 351], the IC50 at BRM and at BRG-1 was over 0.01 µM each time.

On to `COC[C@H](NC(=O)c1ccn(S(C)(=O)=O)c1)C(=O)Nc1nc(-c2cccc(-c3cnn(C)n3)c2)cs1` [Compound 352], for which the IC50 on BRM and on BRG-1 was under 0.01 µM throughout.

Turning to `COC[C@H](NC(=O)c1ccn(S(C)(=O)=O)c1)C(=O)Nc1nc(-c2cccc(C3CC(C)(C)OC(C)(C)C3)c2)cs1` [Compound 353], the results for the IC50 at BRM and on BRG-1 were over 0.01 µM and over 0.1 µM, respectively.

`COC[C@H](NC(=O)c1ccn(S(C)(=O)=O)c1)C(=O)Nc1nc(-c2cccc(C3=CC(C)(C)OC(C)(C)C3)c2)cs1` [Compound 354]: the IC50 on BRM and on BRG-1 was over 0.01 µM in each case.

Consider `C[C@H](NC(=O)c1ccn(S(C)(=O)=O)c1)C(=O)Nc1nc(-c2cccc(-c3cnn(C)n3)c2)cs1` [Compound 355], for which the IC50 at BRM and at BRG-1 was over 0.01 µM in each case.

`COC[C@H](NC(=O)c1ccn(S(C)(=O)=O)c1)C(=O)Nc1nc(-c2cccc(-c3cccc(C)n3)c2)cs1` [Compound 356]: the IC50 on BRM and on BRG-1 was over 0.01 µM in each case.

For `COC[C@H](NC(=O)c1ccn(S(C)(=O)=O)c1)C(=O)Nc1nc(-c2cccc(-c3ccnc(C)n3)c2)cs1` [Compound 357, N-[(1S)-1-(methoxymethyl)-2-[[4-[3-(2-methylpyrimidin-4-yl)phenyl]thiazol-2-yl]amino]-2-oxo-ethyl]-1-methylsulfonyl-pyrrole-3-carboxamide], the IC50 on BRM and on BRG-1 was under 0.01 µM each time.

Regarding `COC[C@H](NC(=O)c1ccn(S(C)(=O)=O)c1)C(=O)Nc1nc(-c2cccc(-c3cc(C)nc(C)n3)c2)cs1` [Compound 358, N-[(1S)-2-[[4-[3-(2,6-dimethylpyrimidin-4-yl)phenyl]thiazol-2-yl]amino]-1-(methoxymethyl)-2-oxo-ethyl]-1-methylsulfonyl-pyrrole-3-carboxamide], the IC50 on BRM and on BRG-1 was under 0.01 µM each time.

In the case of `COC[C@H](NC(=O)c1ccn(S(C)(=O)=O)c1)C(=O)Nc1nc(-c2cccc(-c3ccnc(C(F)F)c3)c2)cs1` [Compound 359], the IC50 at BRM and on BRG-1 was under 0.01 µM throughout.

With `COC[C@H](NC(=O)c1ccn(S(C)(=O)=O)c1)C(=O)Nc1nc(-c2cccc(-c3cnn(C)c3)c2)cs1` [Compound 360], the IC50 on BRM and at BRG-1 was over 0.01 µM throughout.

For the compound `CC1(C#Cc2cccc(-c3csc(NC(=O)CNC(=O)c4ccn(S(C)(=O)=O)c4)n3)c2)COC1` [Compound 361, N-(2-((4-(3-((3-methyloxetan-3-yl)ethynyl)phenyl)thiazol-2-yl)amino)-2-oxoethyl)-1-(methylsulfonyl)-1H-pyrrole-3-carboxamide], the IC50 at BRM and at BRG-1 was over 0.01 µM each time.

As for `COC(C)(C)C#Cc1cccc(-c2csc(NC(=O)CNC(=O)c3ccn(C(C)(C)C)c3)n2)n1` [Compound 362, 1-(tert-butyl)-N-(2-((4-(6-(3-methoxy-3-methylbut-1-yn-1-yl)pyridin-2-yl)thiazol-2-yl)amino)-2-oxoethyl)-1H-pyrrole-3-carboxamide], the IC50 at BRM and on BRG-1 was over 0.1 µM each time.

Regarding `COC(C)(C)C#Cc1cccc(-c2csc(NC(=O)CNC(=O)c3ccn(S(C)(=O)=O)c3)n2)c1` [Compound 363], the IC50 at BRM and at BRG-1 was over 0.01 µM in each case.

Take `C[C@H](NC(=O)c1ccn(S(C)(=O)=O)c1)C(=O)Nc1nc(-c2cccc(N3CCC3)c2)cs1` [Compound 364]: the IC50 at BRM and on BRG-1 was over 0.01 µM throughout.

Regarding `C[C@H](NC(=O)c1ccn(S(C)(=O)=O)c1)C(=O)Nc1nc(-c2cccc(N3CC(O)C3)c2)cs1` [Compound 365], the IC50 at BRM and at BRG-1 was over 0.01 µM throughout.

Take `COC[C@H](NC(=O)c1ccn(S(C)(=O)=O)c1)C(=O)Nc1nc(-c2cccc(N3CCC3)c2)cs1` [Compound 366]: the IC50 on BRM is under 0.01 µM; on BRG-1, over 0.01 µM.
